In test [1] the target is T1, SNAP-CB2R (Homo sapiens, UniProt P34972).
T1 construct: host or cells: HEK-293T, transient transfection (PEI)
Description: Homogeneous HTRF competition binding in living HEK-293T cells (fluorophore-conjugated CM-157). To be noted: living HEK-293T cells expressing SNAP-CB2R, 20 nM fluorescent ligand. For orientation: In TR-FRET formats the signal depends on donor and acceptor labels being close together.

Test [2] deals with T1, SNAP-CB2R. Details: method as in Martínez-Pinilla et al., 2016. As to conditions: HTRF binding to CB2R; ref Martínez-Pinilla et al., 2016; read-out: KD used in the Cheng and Prusoff equation for homogeneous binding; cited from earlier work.
Test [3] concerns the target T2, CB2R in a CB1–CB2 receptor heteromer context (Homo sapiens, UniProt P34972).
T2 construct: host or cells: HEK-293T, transient co-transfection (PEI)
Description: Homogeneous HTRF competition binding in living HEK-293T cells expressing SNAP-CB2R and CB1R. As to conditions: 20 nM fluorescent ligand, read-out: Ki, HTRF competition of fluorophore-conjugated CM-157 in the presence of CB1R.

What is called Ki is the dissociation constant of the complex between target and ligand, obtained from inhibition or displacement. One may read the Kd as the concentration at which binding is half-saturated.

T1 sequence (P34972 whole entry): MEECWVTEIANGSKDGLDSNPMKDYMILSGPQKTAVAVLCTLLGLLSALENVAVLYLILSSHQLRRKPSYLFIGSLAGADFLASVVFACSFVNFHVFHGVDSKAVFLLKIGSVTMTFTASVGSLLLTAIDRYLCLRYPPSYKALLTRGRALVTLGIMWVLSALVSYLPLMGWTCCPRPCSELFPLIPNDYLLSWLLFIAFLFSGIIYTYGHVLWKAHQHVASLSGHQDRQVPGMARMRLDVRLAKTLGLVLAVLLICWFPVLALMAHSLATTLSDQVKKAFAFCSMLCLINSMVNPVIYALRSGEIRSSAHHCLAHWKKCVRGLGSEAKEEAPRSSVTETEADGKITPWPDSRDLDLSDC
T2 sequence (P34972 whole entry): as above
T2 sequence (P21554 whole entry partner): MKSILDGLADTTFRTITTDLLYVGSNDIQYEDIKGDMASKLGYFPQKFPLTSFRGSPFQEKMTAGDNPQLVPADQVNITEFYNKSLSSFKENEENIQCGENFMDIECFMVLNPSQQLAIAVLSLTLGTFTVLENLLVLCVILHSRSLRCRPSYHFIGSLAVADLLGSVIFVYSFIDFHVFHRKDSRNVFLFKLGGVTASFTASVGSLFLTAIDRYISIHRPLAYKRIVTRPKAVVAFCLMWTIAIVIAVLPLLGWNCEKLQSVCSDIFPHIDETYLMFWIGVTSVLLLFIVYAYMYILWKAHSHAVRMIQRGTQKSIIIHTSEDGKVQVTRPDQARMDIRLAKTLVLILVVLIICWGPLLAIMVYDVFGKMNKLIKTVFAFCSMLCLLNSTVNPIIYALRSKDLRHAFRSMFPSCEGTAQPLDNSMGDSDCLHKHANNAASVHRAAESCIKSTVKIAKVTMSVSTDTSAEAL

As for `CC(C)(C)c1nc2cc(S(=O)(=O)c3ccnc(OCCCN)c3)ccc2n1CC1CCOCC1` [CM-157, 3-[[4-[2-tert-butyl-1-(tetrahydropyran-4-ylmethyl)benzimidazol-5-yl]sulfonyl-2-pyridyl]oxy]propan-1-amine, reference compound], the Ki on SNAP-CB2R [1] came out at 16 nM; in test [3], 19 nM. Further, at SNAP-CB2R [2], the Kd is 21 nM.

The values above are taken from article PMC6021502, “Cannabigerol Action at Cannabinoid CB1 and CB2 Receptors and at CB1–CB2 Heteroreceptor Complexes” (Frontiers in Pharmacology, 2018).
